{
  "source": "patent US9221816B2",
  "about": "“2-oxo-2,3-dihydro-indoles for the treatment of CNS disorders” (Hoffmann-La Roche Inc., priority 2012, dated 2015)",
  "key": {"[1]": {"tested_on": "behaviors of compound-treated mice", "test": "SmartCube behavioral signature, similarity to atypical antipsychotics", "format": "in vivo", "settings": "for discrimination rate vs Clozapine / discrimination rate vs Olanzapine / discrimination rate vs Risperidone: SmartCube, i.p. 15 minutes before test, 0.70 or lower = similar; for SmartCube signature: i.p., mice, classification by similarity to drug classes", "description": "In addition to the reversal of L-687,414 induced hyperlocomotion experiment as described above, some compounds of the present invention have been tested in SmartCube®, an automated system in which the behaviors of compound-treated mice in response to multiple challenges are captured by digital video and analyzed with computer algorithms (Roberds et al., Frontiers in Neuroscience, 2011, Vol. 5, Art. 103, 1-4). In this way, the neuro-pharmacological effects of a test compound can be predicted by similarity to major classes of compounds, such as antipsychotics, anxiolytics and antidepressants.\nSmartCube® was used to compare the behavioral signature of a test compound to a database of behavioral signatures obtained from a large set of clinically approved reference drugs, grouped per indications. In this way, the neuro-pharmacological effects of a test compound can be predicted by similarity to major classes of compounds, such as antipsychotics, anxiolytics and antidepressants. This approach is ideally suited to screen collections of existing drugs or drug candidates with previously unknown neuropharmacology, which could expedite the development of new and unexpected treatments for psychiatric disorders.\nSome compounds of the present invention were injected i.p. at different doses 15 minutes before the test. At least 8 mice were used in each treatment group. Digital videos of the subjects were processed with computer vision algorithms to extract over 2000 dependent measures including frequency and duration of many different behavioral states. The results of the classifications are presented as bar charts for each dose (mg/kg), the Y-axis indicates the relative probability that the test compound will show efficacy in the specific CNS indication.\nFor comparison, the behavioral signature of the atypical antipsychotic risperidone is shown in FIG. 3 (for behavioral signatures of further atypical antipsychotic, e.g. clozapine, olanzapine, see also Roberds et al., Frontiers in Neuroscience, 2011, Vol. 5, Art. 103, 1-4). Compounds of the present invention show similar signatures to those of atypical antipsychotics. An independent analysis was performed on the unclassified data to determine the similarity of the example compounds to active doses of known atypical antipsychotics. For this analysis, we use discrimination rate as the measure of separability between the two drugs, i.e. one drug's “distinguishability” from another. A rate equal to 50% (or 0.5) corresponds to zero distinguishability. […] In most cases, the example compounds show a similarity to risperidone, clozapine and olanzapine with a discrimination rate of ≦0.70."}, "[2]": {"tested_on": "L-687,414-induced hyperlocomotion", "test": "L-687,414-induced hyperlocomotion (Digiscan locomotor activity)", "format": "in vivo, mouse", "settings": "mice; for ID50 po: p.o. 15 min before s.c. 50 mg/kg L-687,414, dose producing 50% inhibition of hyperlocomotion; for Inhibition, ip: dose ip 30, at the same time as s.c. 50 mg/kg L-687,414, % inhibition of horizontal activity", "description": "The authors described that hyperlocomotion induced by L-687,414 was inhibited by a series of known antipsychotic drugs. […] These findings predict antipsychotic activity for the present compounds, making them useful for the treatment of schizophrenia and other disorders as described above.\nThe described compounds of formula I and I-1 reduce L-687,414-induced hyperlocomotion. This was assessed by using a computerized Digiscan 16 Animal Activity Monitoring System (Omnitech Electronics, Columbus, Ohio) to quantify locomotor activity. Animals were kept under a 12 h light/dark cycle and experiments were performed during the light period. Each activity monitoring chamber consisted of a Plexiglas box (41×41×28 cm; W×L×H) with sawdust bedding on the floor surrounded by invisible horizontal and vertical infrared sensor beams. The test boxes were divided by a Plexiglas cross providing each mouse with 20×20 cm of moving space. Cages were connected to a Digiscan Analyzer linked to a computer that constantly collected the beam status information. Records of photocell beam interruptions for individual animals were taken every 5 min over the duration of the experimental session and the sum of the first 6 periods was used as the final parameter. Compounds were administered either p.o. 15 min before a s.c. injection of 50 mg/kg of L-687,414, or i.p. at the same time as a s.c. injection of 50 mg/kg of L-687,414. Mice were then transferred from their home cage to the recording chambers for a 15-min habituation phase allowing free exploration of the new environment. Horizontal activity was then recorded for a 30-min time period. The % inhibition of L-687,414-induced hyperlocomotion was calculated according to the equation: ((Veh+L-687,414 horizontal activity−drug+L-687,414 horizontal activity)/Veh+L-687,414 horizontal activity)×100\nID50 values, defined as doses of each compound producing 50% inhibition of L-687,414-induced hyperlocomotion, were calculated by linear regression analysis of a dose-response data using an Excel-based computer-fitting program.\nAs data was not presupposed to be normally distributed, groups treated with test compounds were statistically compared with the control (vehicle-treated) group using one-tailed Mann Whitney U tests. In statistics, the Mann-Whitney U test (also called the Mann-Whitney-Wilcoxon (MWW) or Wilcoxon rank-sum test) is a non-parametric statistical hypothesis test for assessing whether one of two samples of independent observations tends to have larger values than the other. It is one of the most well-known non-parametric significance tests. […] P values given in table 1 are one-tailed since only decreases in locomotion were expected and tested for (Mann, H. B., Whitney, D. R. (1947), “On a Test of Whether one of Two Random Variables is Stochastically Larger than the Other”, Annals of Mathematical Statistics, 18 (1), 50-60)."}},
  "note": "“Also recorded” adds a separate entry of the source.",
  "data": [
    {"molecule": "CN1C(=O)C(C)(C)c2ccc(NC(=O)c3ccncc3F)cc21", "note": "[Example 29, 3-Fluoro-N-(1,3,3-trimethyl-2-oxoindolin-6-yl)isonicotinamide]", "values": [
      {"measurement": "discrimination rate vs Clozapine", "setting": "[1]", "result": 0.63},
      {"measurement": "discrimination rate vs Olanzapine", "setting": "[1]", "result": 0.58},
      {"measurement": "discrimination rate vs Risperidone", "setting": "[1]", "result": 0.56},
      {"measurement": "SmartCube signature", "setting": "[1]", "result": "similarity to atypical antipsychotics; also recorded: profile similar to that of atypical antipsychotics"},
      {"measurement": "ID50 po", "setting": "[2]", "result": 1.08, "unit": "mg/kg"}
    ]},
    {"molecule": "CC1(C)C(=O)N(C2CC2)c2cc(NC(=O)c3ccncc3Cl)ccc21", "note": "[Example 30, 3-Chloro-N-(1-cyclopropyl-3,3-dimethyl-2-oxoindolin-6-yl)isonicotinamide]", "values": [
      {"measurement": "discrimination rate vs Clozapine", "setting": "[1]", "result": 0.68},
      {"measurement": "discrimination rate vs Olanzapine", "setting": "[1]", "result": 0.67},
      {"measurement": "discrimination rate vs Risperidone", "setting": "[1]", "result": 0.72},
      {"measurement": "SmartCube signature", "setting": "[1]", "result": "similarity to atypical antipsychotics; also recorded: profile similar to that of atypical antipsychotics"},
      {"measurement": "ID50 po", "setting": "[2]", "result": 0.97, "unit": "mg/kg"}
    ]},
    {"molecule": "Cc1cc(C(=O)Nc2ccc3c(c2)N(C2CC2)C(=O)C32CC2)ccn1", "note": "[Example 60, N-(1′-Cyclopropyl-2′-oxospiro[cyclopropane-1,3′-indoline]-6′-yl)-2-methylisonicotinamide]", "values": [
      {"measurement": "Inhibition, ip", "setting": "[2]", "result": 63.2, "unit": "%"}
    ]},
    {"molecule": "CC1(C)C(=O)N(C2COC2)c2cc(NC(=O)c3ccncc3Cl)ccc21", "note": "[Example 62, 3-Chloro-N-(3,3-dimethyl-1-(oxetan-3-yl)-2-oxoindolin-6-yl)isonicotinamide]", "values": [
      {"measurement": "Inhibition, ip", "setting": "[2]", "result": 61.7, "unit": "%"}
    ]},
    {"molecule": "CC1(C)C(=O)N(C2COC2)c2cc(NC(=O)c3cccnc3)ccc21", "note": "[Example 64, N-(3,3-Dimethyl-1-(oxetan-3-yl)-2-oxoindolin-6-yl)nicotinamide]", "values": [
      {"measurement": "Inhibition, ip", "setting": "[2]", "result": 65.9, "unit": "%"}
    ]},
    {"molecule": "CC1(C)C(=O)N(CCCOC2CC2)c2cc(NC(=O)c3ccncc3F)ccc21", "note": "[Example 65, N-(1-(3-Cyclopropoxypropyl)-3,3-dimethyl-2-oxoindolin-6-yl)-3-fluoroisonicotinamide]", "values": [
      {"measurement": "Inhibition, ip", "setting": "[2]", "result": 91.1, "unit": "%"}
    ]},
    {"molecule": "CC1(C)C(=O)N(CCO)c2cc(NC(=O)c3ccncc3F)ccc21", "note": "[Example 68, 3-Fluoro-N-(1-(2-hydroxyethyl)-3,3-dimethyl-2-oxoindolin-6-yl)isonicotinamide]", "values": [
      {"measurement": "Inhibition, ip", "setting": "[2]", "result": 89.1, "unit": "%"}
    ]},
    {"molecule": "CC1(C)C(=O)N(CCCO)c2cc(NC(=O)c3ccncc3F)ccc21", "note": "[Example 69, 3-Fluoro-N-(1-(3-hydroxypropyl)-3,3-dimethyl-2-oxoindolin-6-yl)isonicotinamide]", "values": [
      {"measurement": "Inhibition, ip", "setting": "[2]", "result": 82.4, "unit": "%"}
    ]},
    {"molecule": "CC1(C)C(=O)Nc2cc(NC(=O)c3ccncc3F)ccc21", "note": "[Example 72, N-(3,3-Dimethyl-2-oxoindolin-6-yl)-3-fluoroisonicotinamide]", "values": [
      {"measurement": "ID50 po", "setting": "[2]", "result": 2.22, "unit": "mg/kg"}
    ]},
    {"molecule": "CC1(C)C(=O)N(CCCO)c2cc(NC(=O)c3ccncc3Cl)ccc21", "note": "[Example 73, 3-Chloro-N-(1-(3-hydroxypropyl)-3,3-dimethyl-2-oxoindolin-6-yl)isonicotinamide]", "values": [
      {"measurement": "Inhibition, ip", "setting": "[2]", "result": 51.2, "unit": "%"}
    ]},
    {"molecule": "CC1(C)C(=O)N(CC(F)(F)F)c2cc(NC(=O)c3ccncc3F)ccc21", "note": "[Example 74, N-(3,3-Dimethyl-2-oxo-1-(2,2,2-trifluoroethyl)indolin-6-yl)-3-fluoroisonicotinamide]", "values": [
      {"measurement": "Inhibition, ip", "setting": "[2]", "result": 76.6, "unit": "%"}
    ]},
    {"molecule": "CC1(C)C(=O)N(C2CC2)c2cc(NC(=O)c3ccncc3)ncc21", "note": "[Example 79, N-(1-Cyclopropyl-3,3-dimethyl-2-oxo-2,3-dihydro-1H-pyrrolo[3,2-c]pyridin-6-yl)isonicotinamide]", "values": [
      {"measurement": "ID50 po", "setting": "[2]", "result": 0.94, "unit": "mg/kg"}
    ]},
    {"molecule": "Cc1cc(C(=O)Nc2cc3c(cn2)C(C)(C)C(=O)N3C2CC2)ccn1", "note": "[Example 81, N-(1-Cyclopropyl-3,3-dimethyl-2-oxo-2,3-dihydro-1H-pyrrolo[3,2-c]pyridin-6-yl)-2-methylisonicotinamide]", "values": [
      {"measurement": "Inhibition, ip", "setting": "[2]", "result": 53.1, "unit": "%"}
    ]},
    {"molecule": "CC1(C)C(=O)N(C2CC2)c2cc(NC(=O)c3ccnc(Cl)c3)ncc21", "note": "[Example 83, 2-Chloro-N-(1-cyclopropyl-3,3-dimethyl-2-oxo-2,3-dihydro-1H-pyrrolo[3,2-c]pyridin-6-yl)isonicotinamide]", "values": [
      {"measurement": "Inhibition, ip", "setting": "[2]", "result": 79.6, "unit": "%"}
    ]},
    {"molecule": "CC1(C)C(=O)N(C2CC2)c2cc(NC(=O)c3ccno3)ncc21", "note": "[Example 85, N-(1-Cyclopropyl-3,3-dimethyl-2-oxo-2,3-dihydro-1H-pyrrolo[3,2-c]pyridin-6-yl)isoxazole-5-carboxamide]", "values": [
      {"measurement": "Inhibition, ip", "setting": "[2]", "result": 74.9, "unit": "%"}
    ]},
    {"molecule": "Cn1nccc1C(=O)Nc1cc2c(cn1)C(C)(C)C(=O)N2C1CC1", "note": "[Example 86, N-(1-Cyclopropyl-3,3-dimethyl-2-oxo-2,3-dihydro-1H-pyrrolo[3,2-c]pyridin-6-yl)-1-methyl-1H-pyrazole-5-carboxamide]", "values": [
      {"measurement": "Inhibition, ip", "setting": "[2]", "result": 69, "unit": "%"}
    ]},
    {"molecule": "COc1ncc(C(=O)Nc2cc3c(cn2)C(C)(C)C(=O)N3C2CC2)cn1", "note": "[Example 88, N-(1-Cyclopropyl-3,3-dimethyl-2-oxo-2,3-dihydro-1H-pyrrolo[3,2-c]pyridin-6-yl)-2-methoxypyrimidine-5-carboxamide]", "values": [
      {"measurement": "ID50 po", "setting": "[2]", "result": 6.11, "unit": "mg/kg"}
    ]}
  ]
}
